We go through 3 compounds from patent US8252835B2, “Compounds and methods for treating estrogen receptor-related diseases” (Shenogen Pharma Group Ltd., priority 2006, dated 2012).

The test system of one assay is cell proliferation. Conditions: background, literature; cited from earlier work.
In the next assay the test system is MCF7 cells. Nature of the assay: MCF7 surviving cell count (hemocytometer). Conditions: for numbers of surviving MCF7 cells: 5 μM and up, two weeks, FIG. 5b.
Another assay has as its target T1, ER-α66 (Homo sapiens, UniProt P03372).
T1 sequence (P03372 1-595): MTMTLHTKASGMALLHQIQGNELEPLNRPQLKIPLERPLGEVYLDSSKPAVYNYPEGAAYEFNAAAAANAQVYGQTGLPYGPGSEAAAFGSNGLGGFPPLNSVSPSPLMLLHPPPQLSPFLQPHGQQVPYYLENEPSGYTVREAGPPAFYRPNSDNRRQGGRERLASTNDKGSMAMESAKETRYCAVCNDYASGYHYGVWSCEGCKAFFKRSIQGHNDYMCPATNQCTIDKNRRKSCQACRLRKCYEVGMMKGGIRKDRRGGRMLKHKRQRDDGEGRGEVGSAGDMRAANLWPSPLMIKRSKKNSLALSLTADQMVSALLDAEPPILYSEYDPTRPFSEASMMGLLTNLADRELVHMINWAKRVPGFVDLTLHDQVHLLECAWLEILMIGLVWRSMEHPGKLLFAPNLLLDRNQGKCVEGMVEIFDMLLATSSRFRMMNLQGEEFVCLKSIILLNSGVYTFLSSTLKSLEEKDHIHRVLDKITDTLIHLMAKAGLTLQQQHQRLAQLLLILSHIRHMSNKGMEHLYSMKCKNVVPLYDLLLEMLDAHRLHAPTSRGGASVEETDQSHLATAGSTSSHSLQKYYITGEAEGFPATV
Nature of the assay: Western blot of ER-α66 expression in MCF7 cells. Conditions: zero to 25 μM, 12 hours, FIG. 9.

The next assay concerns the target T2, ER-α36 (Homo sapiens, UniProt P03372).
T2 sequence (P03372 1-310 isoform P03372-4): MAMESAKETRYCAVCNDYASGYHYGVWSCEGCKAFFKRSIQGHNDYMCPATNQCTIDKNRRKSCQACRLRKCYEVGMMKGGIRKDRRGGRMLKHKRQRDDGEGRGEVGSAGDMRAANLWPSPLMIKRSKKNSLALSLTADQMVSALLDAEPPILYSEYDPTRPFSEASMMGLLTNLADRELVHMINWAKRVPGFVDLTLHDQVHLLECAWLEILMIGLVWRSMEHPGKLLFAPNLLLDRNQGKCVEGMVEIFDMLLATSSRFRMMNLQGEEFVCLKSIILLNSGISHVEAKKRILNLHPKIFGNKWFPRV
As to the kind of experiment: Western blot of ER-α36 expression in MCF7 cells. The conditions noted are these: zero to 25 μM, 12 hours, FIG. 9. A general note: A western blot detects proteins with antibodies after separation by electrophoresis.

The next assay addresses T3, ER-α46 (Homo sapiens, UniProt P03372).
T3 sequence (P03372 1-422 isoform P03372-3): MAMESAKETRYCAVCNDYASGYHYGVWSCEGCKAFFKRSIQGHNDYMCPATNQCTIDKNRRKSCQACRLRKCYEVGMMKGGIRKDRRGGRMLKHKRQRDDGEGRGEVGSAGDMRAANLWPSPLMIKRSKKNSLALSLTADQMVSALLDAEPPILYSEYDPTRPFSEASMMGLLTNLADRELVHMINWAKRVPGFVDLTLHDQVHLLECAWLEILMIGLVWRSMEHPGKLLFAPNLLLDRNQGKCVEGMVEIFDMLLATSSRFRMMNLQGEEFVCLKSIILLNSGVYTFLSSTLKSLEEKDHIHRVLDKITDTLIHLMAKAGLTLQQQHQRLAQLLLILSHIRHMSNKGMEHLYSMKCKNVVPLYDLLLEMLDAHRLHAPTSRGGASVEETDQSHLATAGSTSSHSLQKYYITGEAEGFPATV
As to the kind of experiment: Western blot of ER-α46 expression in MCF7 cells. The conditions noted are these: zero to 25 μM, 12 hours, FIG. 9.

A further assay concerns PC3 cells. As to the kind of experiment: PC3 prostate cancer surviving cell count. Format: cell-based. Conditions: 10 μM, FIG. 16.
Assay [1] deals with Tamoxifen resistant MCF7 cells (MCF7/TAM). As to the kind of experiment: Surviving cell count, Tamoxifen resistant MCF7 cells. The conditions noted are these: 10 μM, FIG. 16.
Assay [2] can be described thus: Asthma attack induced by ovalbumin in guinea pigs. Format: in vivo. The conditions noted are these: for blood concentration of histamine / concentration of IgE in the blood: ELISA; for blood concentration of histamine: FIG. 19; for concentration of IgE in the blood: FIG. 20; for percentage of oxyphil cells in the blood: control about 9.9%, normal about 5.3%. The protocol:
Guinea pigs of 250-300 g were provided by Beijing Haidian Xingwang Animal Farm. The guinea pigs were injected with 1 ml 10% ovalbumin (Sigma Cat. No. A5253) into abdomen once. On the 15th-17th day after the injection, the guinea pigs were given 1% aerosolized ovalbumin for about 20 seconds through nasal spray to induce asthma attack. The latent period before asthma attack calculated from after ovalbumin administration to the time when the guinea pigs collapsed with convulsion was measured.
On the 17th day after injection, the qualified guinea pigs were divided into 3 groups, the high dosage IC-163 group (4 mg/kg/day), the low dosage IC-163 group (1 mg/kg/day) and the control group. Each group consisted of 10 guinea pigs. A normal group consisting of 8 normal guinea pigs which had not been injected with any 10% ovalbumin was also tested. IC-163 was administered to the guinea pigs at 4 mg per kilogram of body weight per day (the high dosage group) or 1 mg per kilogram of body weight per day (the low dosage group) through muscle injection once a day for 6 days while the guinea pigs of the normal group and the control group were injected with saline water. On the 4th and 6th day of administering the drug, the guinea pigs were induced for asthma attack in the same way as above. The latent period before asthma attack was measured. If the latent period lasted longer than 5 minutes, the latent period was recorded as 5 minutes. On the 6th day, blood was drawn from the guinea pigs of the four groups to examine the percentage of oxyphil cells, the concentrations of histamine and IgE in the blood. The percentage of oxyphil cells was measured by counting the number of oxyphil cells in every 200 leukocytes under microscope. The concentrations of histamine and IgE were measured by double-antibody sandwich ELISA (Enzyme Linked Immunosorbent Assay).

The subject of the next assay is H226 Lung Cancer Cells. Nature of the assay: H226 lung cancer surviving cell count. The format is cell-based. The conditions noted are these: 10 μM, FIG. 16.
[3] abbreviates: high dosage 4 mg/kg/day, 6th day.
[4] abbreviates: low dosage 1 mg/kg/day, 6th day.

On to `COc1ccc(-c2oc3c(CC=C(C)C)c(O[C@@H]4O[C@H](CO)[C@@H](O)[C@H](O)[C@H]4O)cc(O)c3c(=O)c2O[C@@H]2O[C@@H](C)[C@H](O)[C@@H](O)[C@H]2O)cc1` [Icariin], for which, in the assay with cell proliferation, the “effect on cell proliferation in vitro” value was “no effect”.
`CC1(C)CCc2c(cc(O)c3c(=O)c(O)c(-c4ccc(O)cc4)oc23)O1` [Y4, 3,5-dihydroxy-2-(4-hydroxyphenyl)-8,8-dimethyl-9,10-dihydro-4H,8H-pyrano[2,3-f]chromen-4-one]: the “numbers of surviving MCF7 cells” value with MCF7 cells is “significantly reduced”. The ER-α66 expression entry on ER-α66 is on record as “greatly reduced”. The ER-α36 expression result on ER-α36 is listed as “greatly reduced”. Moreover, at ER-α46, the ER-α46 expression result is reported as “greatly reduced”.
For `COc1ccc(-c2oc3c(CCC(C)(C)O)c(O)cc(O)c3c(=O)c2O)cc1` [IC 163, 3,5,7-trihydroxy-8-(3-hydroxy-3-methylbutyl)-2-(4-methoxyphenyl)-4H-chromen-4-one], the numbers of cells entry in the assay with PC3 cells is given as “reduced”; in the assay with MCF7 cells (10 μM, FIG. 16), “reduced”; in assay [1] it was “reduced”; in the assay on H226 Lung Cancer Cells, “reduced”. Also, the “numbers of surviving MCF7 cells” value in the assay on MCF7 cells was “significantly reduced”. Besides, the ER-α66 expression result at ER-α66 is recorded as “greatly reduced”. For the same compound, on ER-α36, the ER-α36 expression entry is reported as “greatly reduced”. The “latent period before asthma attack extended in comparison with the control group” value came out at 72.9% in [2] (high dosage 4 mg/kg/day muscle injection, 4th day); 63.5% in assay [2] (high dosage 4 mg/kg/day muscle injection, 6th day); 83.4% in [2] (low dosage 1 mg/kg/day muscle injection, 4th day); 72.7% in assay [2] (low dosage 1 mg/kg/day muscle injection, 6th day). The “blood concentration of histamine” value in assay [2] (setting [3]) and in assay [2] (setting [4]) was “significantly reduce” throughout. Moreover, the “concentration of IgE in the blood” value in assay [2] (setting [3]) and in assay [2] (setting [4]) was “significantly reduce” throughout. Also, the “percentage of oxyphil cells in the blood” value in assay [2] (setting [3]) is listed as “about 8.6%”; in [2] (setting [4]), “about 7.8%”. In addition, the ER-α46 expression result on ER-α46 was “greatly reduced”.
